Source: US9376442B2, “Methylpyrrolopyrimidinecarboxamides” (Takeda GmbH, priority 2009, dated 2016)

Target: T1, PDE5A1 (Homo sapiens, UniProt O76074)
T1 construct: from tissue; host or cells: human platelets from fresh donor blood (10,000 x g supernatant of sonicated lysate)
Experiment: Inhibition of type 5 phosphodiesterase (PDE5) activity, modified SPA test with human platelet lysate
Assay type: biochemical
Settings: 0.5 μM cGMP, read-out: PDE5A1 inhibitory values [measured as −log IC50 (mol/l)] (converted)
Protocol: Method for Measuring Inhibition of the Type 5 Phosphodiesterase (PDE5) Activity:
As a source for human PDE5, platelets are used. For that purpose, 150 ml fresh blood from human donors anticoagulated with citrate [final concentration 0.3% (w/v)] is centrifuged at 200 g for 10 min to obtain the so-called platelet-rich-plasma (PRP) as a supernatant. 1/10 volume of ACD solution (85 mM Na3-citrate, 111 mM D-glucose, 71 mM citric acid, pH 4.4) is added to 9/10 volume of PRP. After centrifugation (1,400 g, 10 min) the cell pellet is resuspended in 3 ml homogenization buffer (NaCl 140 mM, KCl 3.8 mM, EGTA (ethylene glycol tetraacetic acid) 1 mM, MgCl2 1 mM, Tris-HCl 20 mM, beta-mercaptoethanol 1 mM, pH 8.2) plus protease-inhibitor mix giving rise to the final concentrations of 0.5 mM Pefablock (Roche), 10 μM Leupeptin, 5 μM Trypsininhibitor, 2 mM Benzamidin and 10 μM Pepstatin A. The suspension is sonified and thereafter centrifuged for 15 min at 10,000 g. The resulting supernatant (platelet lysate) is used for enzymatic testings.
PDE5A1 activity is inhibited by the compounds of the present subject matter in a modified SPA (scintillation proximity assay) test, supplied by Amersham Biosciences (see procedural instructions “phosphodiesterase [3H]cAMP SPA enzyme assay, code TRKQ 7090”), carried out in 96-well microtitre plates (MTP's). The test volume is 100 μl and contains 20 mM Tris buffer (pH 7.4), 0.1 mg of BSA (bovine serum albumin)/ml, 5 mM Mg^2+, 1 μM motapizone, 10 nM PDE2 inhibitor 2-(3,4-dimethoxybenzyl)-7-[(1R,2R)-2-hydroxy-1-(2-phenylethyl)propyl]-5-methylimidazo[5,1-f][1,2,4]triazin-4(3H)-one, 0.5 μM cGMP (cyclic guanosine monophosphate) (including about 50,000 cpm of [3H]cGMP as a tracer), 1 μl of the respective compound dilution in dimethylsulfoxide (DMSO) and sufficient PDE5-containing platelet lysat (10,000×g supernatant, see above) to ensure that 10-20 wt % of the cGMP is converted under the said experimental conditions. […] After a preincubation of 5 min at 37° C., the reaction is started by adding the substrate (cGMP) and the assay is incubated for a further 15 min; after that, it is stopped by adding SPA beads (50 μl). In accordance with the manufacturer's instructions, the SPA beads had previously been resuspended in water, but are then diluted 1:3 (v/v) in water; the diluted solution also contains 3 mM […] (IBMX) to ensure a complete PDE activity stop. After the beads have been sedimented (>30 min), the MTP's are analyzed in commercially available luminescence detection devices. The corresponding IC50 values of the compounds for the inhibition of PDE activity are determined from the concentration-effect curves by means of non-linear regression.

IC50 [nM]	SMILES
1 to 10	CC(=O)N1CC[C@@H](NC(=O)c2c(C)[nH]c3c(-c4cc(F)ccc4OCC4CC4)ncnc23)C1 [Example E46, N-[(3R)-1-acetylpyrrolidin-3-yl]-4-[2-(cyclopropylmethoxy)-5-fluorophenyl]-6-methyl-5H-pyrrolo[3,2-d]pyrimidine-7-carboxamide]
1 to 10	Cc1[nH]c2c(-c3ccc(F)cc3OCC3CC3)ncnc2c1C(=O)N[C@@H]1CCN(C(=O)CO)C1 [Example F17, 4-[2-(Cyclopropylmethoxy)-4-fluorophenyl]-N-[(3R)-1-(hydroxyacetyl)pyrrolidin-3-yl]-6-methyl-5H-pyrrolo[3,2-d]pyrimidine-7-carboxamide]
< 1	CCC(=O)N1CCC(NC(=O)c2c(C)[nH]c3c(-c4cc(F)c(OC)cc4OCC4CC4)ncnc23)CC1 [Example E132, 4-[2-(Cyclopropylmethoxy)-5-fluoro-4-methoxyphenyl]-6-methyl-N-(1-propionylpiperidin-4-yl)-5H-pyrrolo[3,2-d]pyrimidine-7-carboxamide]
< 1	COc1cc(-c2ncnc3c(C(=O)N[C@@H]4CN(C(=O)[C@H](C)O)C[C@H]4O)c(C)[nH]c23)c(OCC2CC2)cc1F (relative stereo) [Example F114, 4-[2-(Cyclopropylmethoxy)-4-fluoro-5-methoxyphenyl]-N-{(3R*,4R*)-4-hydroxy-1-[(2S)-2-hydroxypropanoyl]pyrrolidin-3-yl}-6-methyl-5H-pyrrolo[3,2-d]pyrimidine-7-carboxamide]
1 to 10	COCC(=O)N1CC[C@@H](NC(=O)c2c(C)[nH]c3c(-c4cc(OC)ccc4OCC4CC4)ncnc23)[C@H](O)C1 (relative stereo) [Example E80, 4-[2-(Cyclopropylmethoxy)-5-methoxyphenyl]-N-[(3R*,4R*)-3-hydroxy-1-(methoxyacetyl)piperidin-4-yl]-6-methyl-5H-pyrrolo[3,2-d]pyrimidine-7-carboxamide]
< 1	COc1cc(-c2ncnc3c(C(=O)NC4CCN(C(C)=O)CC4)c(C)[nH]c23)c(OCC2CC2)cc1F [Example E102, N-(1-Acetylpiperidin-4-yl)-4-[2-(cyclopropylmethoxy)-4-fluoro-5-methoxyphenyl]-6-methyl-5H-pyrrolo[3,2-d]pyrimidine-7-carboxamide]
1 to 10	COCC(=O)N1CC[C@@H](NC(=O)c2c(C)[nH]c3c(-c4cc(F)ccc4OCC4CC4)ncnc23)[C@H](O)C1 (relative stereo) [Example E51, 4-[2-(Cyclopropylmethoxy)-5-fluorophenyl]-N-[(3R*,4R*)-3-hydroxy-1-(methoxyacetyl)piperidin-4-yl]-6-methyl-5H-pyrrolo[3,2-d]pyrimidine-7-carboxamide]
< 1	COc1ccc(-c2ncnc3c(C(=O)N[C@@H]4CCN(C(=O)[C@H](C)O)C4)c(C)[nH]c23)c(OCC2CC2)c1 [Example F38, 4-[2-(Cyclopropylmethoxy)-4-methoxyphenyl]-N-{(3R)-1-[(2S)-2-hydroxypropanoyl]pyrrolidin-3-yl}-6-methyl-5H-pyrrolo[3,2-d]pyrimidine-7-carboxamide]
< 1	COc1cc(OCC2CC2)c(-c2ncnc3c(C(=O)N[C@@H]4CCN(C(=O)CO)C4)c(C)[nH]c23)cc1F [Example F115, 4-[2-(Cyclopropylmethoxy)-5-fluoro-4-methoxyphenyl]-N-[(3R)-1-glycoloylpyrrolidin-3-yl]-6-methyl-5H-pyrrolo[3,2-d]pyrimidine-7-carboxamide]
< 1	COc1cc(-c2ncnc3c(C(=O)N[C@@H]4CCN(C(=O)[C@H](C)O)C4)c(C)[nH]c23)c(OCC2CC2)cc1F [Example F112, 4-[2-(Cyclopropylmethoxy)-4-fluoro-5-methoxyphenyl]-N-{(3R)-1-[(2S)-2-hydroxypropanoyl]pyrrolidin-3-yl}-6-methyl-5H-pyrrolo[3,2-d]pyrimidine-7-carboxamide]
< 1	COc1cc(-c2ncnc3c(C(=O)N[C@@H]4CCN(C(=O)CO)C4)c(C)[nH]c23)c(OCC2CC2)cc1F [Example F111, 4-[2-(Cyclopropylmethoxy)-4-fluoro-5-methoxyphenyl]-N-[(3R)-1-glycoloylpyrrolidin-3-yl]-6-methyl-5H-pyrrolo[3,2-d]pyrimidine-7-carboxamide]

The remaining lines, values behind:

SMILES	IC50 [nM]
Cc1[nH]c2c(-c3ccc(F)cc3OCC3CC3)ncnc2c1C(=O)N[C@H]1CC[C@H](NC(=O)CO)CC1 [Example F13, 4-[2-(Cyclopropylmethoxy)-4-fluorophenyl]-N-[trans-4-(glycoloylamino)cyclohexyl]-6-methyl-5H-pyrrolo[3,2-d]pyrimidine-7-carboxamide]	< 1
COc1cc(OCC2CC2)c(-c2ncnc3c(C(=O)N[C@H]4CC[C@@H](NC(=O)[C@H](C)O)CC4)c(C)[nH]c23)cc1F [Example F88, 4-[2-(Cyclopropylmethoxy)-5-fluoro-4-methoxyphenyl]-N-(cis-4-{[(2S)-2-hydroxypropanoyl]amino}cyclohexyl)-6-methyl-5H-pyrrolo[3,2-d]pyrimidine-7-carboxamide]	< 1
COCC(=O)N1CC[C@@H](NC(=O)c2c(C)[nH]c3c(-c4cc(OC)c(F)cc4OCC4CC4)ncnc23)[C@H](O)C1 (relative stereo) [Example E115, 4-[2-(cyclopropylmethoxy)-4-fluoro-5-methoxyphenyl]-N-[(3R*,4R*)-3-hydroxy-1-(methoxyacetyl)piperidin-4-yl]-6-methyl-5H-pyrrolo[3,2-d]pyrimidine-7-carboxamide]	< 1
Cc1[nH]c2c(-c3c(OCC4CC4)ccc4c3OCO4)ncnc2c1C(=O)N[C@H]1CC[C@@H](NC(=O)CO)CC1 [Example F5, 4-[5-(Cyclopropylmethoxy)-1,3-benzodioxol-4-yl]-N-[cis-4-(glycoloylamino)cyclohexyl]-6-methyl-5H-pyrrolo[3,2-d]pyrimidine-7-carboxamide]	< 1
COc1cc(-c2ncnc3c(C(=O)N[C@H]4CC[C@@H](NC(=O)CO)CC4)c(C)[nH]c23)c(OCC2CC2)cc1F [Example F69, 4-[2-(Cyclopropylmethoxy)-4-fluoro-5-methoxyphenyl]-N-[cis-4-(glycoloylamino)cyclohexyl]-6-methyl-5H-pyrrolo[3,2-d]pyrimidine-7-carboxamide]	< 1
COCC(=O)N[C@H]1CC[C@@H](NC(=O)c2c(C)[nH]c3c(-c4c(OCC5CC5)ccc5c4OCO5)ncnc23)CC1 [Example E11, 4-[5-(Cyclopropylmethoxy)-1,3-benzodioxol-4-yl]-N-{cis-4-[(methoxyacetyl)amino]cyclohexyl}-6-methyl-5H-pyrrolo[3,2-d]pyrimidine-7-carboxamide]	< 1
COCC(=O)N[C@H]1CC[C@H](NC(=O)c2c(C)[nH]c3c(-c4cc(OC)c(F)cc4OCC4CC4)ncnc23)CC1 [Example E108, 4-[2-(Cyclopropylmethoxy)-4-fluoro-5-methoxyphenyl]-N-{trans-4-[(methoxyacetyl)amino]cyclohexyl}-6-methyl-5H-pyrrolo[3,2-d]pyrimidine-7-carboxamide]	< 1
COc1cc(OCC2CC2)c(-c2nc(C)nc3c(C(=O)NC4CCN(C(=O)[C@H](C)O)CC4)c(C)[nH]c23)cc1F [Example F108, 4-[2-(Cyclopropylmethoxy)-5-fluoro-4-methoxyphenyl]-N-{1-[(2S)-2-hydroxypropanoyl]piperidin-4-yl}-2,6-dimethyl-5H-pyrrolo[3,2-d]pyrimidine-7-carboxamide]	< 1
COCC(=O)N[C@H]1CC[C@@H](NC(=O)c2c(C)[nH]c3c(-c4ccc(F)cc4OCC4CC4)ncnc23)CC1 [Example E27, 4-[2-(Cyclopropylmethoxy)-4-fluorophenyl]-N-{cis-4-[(methoxyacetyl)amino]cyclohexyl}-6-methyl-5H-pyrrolo[3,2-d]pyrimidine-7-carboxamide]	< 1
COCC(=O)N[C@H]1CC[C@H](NC(=O)c2c(C)[nH]c3c(-c4ccc(F)cc4OCC4CC4)ncnc23)CC1 [Example E24, 4-[2-(Cyclopropylmethoxy)-4-fluorophenyl]-N-{trans-4-[(methoxyacetyl)amino]cyclohexyl}-6-methyl-5H-pyrrolo[3,2-d]pyrimidine-7-carboxamide]	< 1
